Reference: patent US20250059474A1, “Liquid formulation comprising an alcohol and highly water soluble manganese complex salt catalyst, bleaching formulation and cleaning agent comprising the same” (Catexel GmbH, priority 2023, published 2025)
Read-outs that look alike come from different tables or passages of the source.

Columns and labels:
[1] = Solubility in water at 20° C.; assay type: physicochemical
[2] = Dissolution and storage stability of MnTACN salts in various solvents; assay type: physicochemical
Description: Dissolution of MnTACN-PF6 catalyst in various solvents was performed. First a screening was done in which solvents the PF6 salt of the MnTACN catalyst could be dissolved.

[3] = Stability of PVOH pouches containing solvents; settings: 26 weeks at 40° C. then 26 weeks at room temperature
Description: In small pouches made from a standard PVOH film, different solvents were added (1 mL), the pouch was sealed using a hot plate (150° C.). The pouches containing the solvent were stored for 26 weeks at 40° C. and then for 26 weeks at room temperature.

[4] = Dishwash machine tea-stain cleaning experiments; settings: 0 = no cleaning, 100 = complete removal
Description: A standard dishwash machine tablet was prepared using the same ingredients as disclosed in WO2022/058039 (Weylchem Performance Products GmbH). Together with each tablet (14 g) on top, either no catalyst was added (blank), 100 mg of Weylclean® FDO X (uncoated granules containing 2 wt-% of MnTACN-PF6 (comparative)) was added, or 82 mg of dipropylene glycol containing 1.64 mg of dissolved MnTACN-SO4 (Exp low MnTACN-SO4) or 100 mg of dipropylene glycol containing 2 mg of dissolved MnTACN-SO4 (Exp high MnTACN-SO4).

[5] = Dowanol PM with 3 wt % citric acid
[6] = dipropylene glycol with 3 wt % of nitric acid
[7] = dipropylene glycol with 3 wt % sulfuric acid
[8] = propylene glycol, no acids added

CN1CCN(C)CCN(C)CC1.CN1CCN(C)CCN(C)CC1.F[P-](F)(F)(F)(F)F.F[P-](F)(F)(F)(F)F.O.[Mn+4].[Mn+4].[O-2].[O-2].[O-2] [MnTACN-PF6, [Mn^IV2(μ-O)3(Me3-TACN)2](PF6)2*H2O, reference compound]
solubility in water [1]: 10.8 g/L
solubility in solvent ([2]; 1,3-propanol-diol): Poor solubility
solubility in solvent ([2]; 1-hexanol): Poor solubility
solubility in solvent ([2]; 1-propanol): Poor solubility
solubility in solvent ([2]; 2-ethyl-1-hexanol): Poor solubility
solubility in solvent ([2]; 2-propanol): Poor solubility
solubility in solvent ([2]; Dowanol DPM): Poor solubility
solubility and stability in solvent ([2]; Dowanol PM without acid): Poor solubility
solubility in solvent ([2]; acetonitrile): dissolved very well
solubility and stability in solvent ([2]; dipropylene glycol): Poor solubility
solubility in solvent ([2]; ethanol (abs)): Poor solubility
solubility in solvent ([2]; ethyl acetate): Poor solubility
solubility in solvent ([2]; ethylene glycol, after heating): dissolved
solubility in solvent ([2]; formic acid): well soluble
stability (appearance) in solution ([2]; formic acid): turned brown

CN1CCN(C)CCN(C)CC1.CN1CCN(C)CCN(C)CC1.O.O.O.[Cl-].[Cl-].[Mn+4].[Mn+4].[O-2].[O-2].[O-2] [MnTACN-Cl2, [Mn^IV2(μ-O)3(Me3-TACN)2]Cl2*3H2O]
solubility in water [1]: greater than 182 g/L
solubility in water ([1]; equated from g/L): > 18.2 wt %
solubility in solvent ([2]; dipropylene glycol, had to be heated): dissolved

CN1CCN(C)CCN(C)CC1.CN1CCN(C)CCN(C)CC1.O=[N+]([O-])[O-].O=[N+]([O-])[O-].[Mn+4].[Mn+4].[O-2].[O-2].[O-2] [MnTACN-NO3, [Mn^IV2(μ-O)3(Me3-TACN)2](NO3)2]
solubility in water [1]: greater than 283 g/L
solubility in water ([1]; equated from g/L): > 28.3 wt %
solubility and stability in solvent [2, 5]: good solubility and stability
solubility and stability in solvent ([2]; Dowanol PM with sulfuric acid): good solubility and stability
solubility and stability in solvent ([2]; Dowanol PM without acid): good solubility and stability
solubility and stability in solvent ([2]; dipropylene glycol): good solubility and stability
solubility and stability in solvent [2, 6]: good solubility and stability
solubility and stability in solvent [2, 7]: good solubility and stability
solubility and stability in solvent [2, 8]: good solubility and stability

COCC(C)O (stereo not drawn) [Dowanol PM, propylene glycol methyl ether]
stability of PVOH pouches containing the solvent ([3]; solvent with 3 wt % H2SO4): not stable
stability of PVOH pouches containing the solvent ([3]; solvent with 3 wt % HNO3): good stability
stability of PVOH pouches containing the solvent ([3]; solvent with 3 wt % citric acid): not stable
stability of PVOH pouches containing the solvent ([3]; solvent without acid, 1 mL): not stable

CN1CCN(C)CCN(C)CC1.CN1CCN(C)CCN(C)CC1.Cc1ccc(S(=O)(=O)[O-])cc1.Cc1ccc(S(=O)(=O)[O-])cc1.[Mn+4].[Mn+4].[O-2].[O-2].[O-2] [MnTACN-Ts2, [Mn^IV2(μ-O)3(Me3-TACN)2](tosylate)2]
solubility in water [1]: greater than 100 g/L
solubility in water ([1]; equated from g/L): > 10 wt %
solubility and stability in solvent ([2]; dipropylene glycol): dissolved

COC(C)COC(C)CO (stereo not drawn) [Dowanol DPM, dipropylene glycol methyl ether]
stability of PVOH pouches containing the solvent ([3]; solvent without acid, 1 mL): good stability

CN1CCN(C)CCN(C)CC1.CN1CCN(C)CCN(C)CC1.O.O.O.O.O=S(=O)([O-])[O-].[Mn+4].[Mn+4].[O-2].[O-2].[O-2] [MnTACN-SO4, [Mn^IV2(μ-O)3(Me3-TACN)2]SO4*4H2O]
solubility in water [1]: greater than 735 g/L
solubility in water ([1]; equated from g/L): > 73.5 wt %
solubility and stability in solvent [2, 5]: good solubility and stability
solubility and stability in solvent ([2]; Dowanol PM with nitric acid): poor solubility
solubility and stability in solvent ([2]; Dowanol PM with sulfuric acid): poor solubility
solubility and stability in solvent ([2]; Dowanol PM without acid): good solubility and stability
solubility and stability in solvent ([2]; dipropylene glycol): good solubility and stability
solubility and stability in solvent ([2]; dipropylene glycol with 3 wt % citric acid): good solubility and stability
solubility and stability in solvent [2, 6]: precipitation
solubility and stability in solvent [2, 7]: precipitation
solubility and stability in solvent [2, 8]: good solubility and stability
tea-stain cleaning on tea cups ([4]; 14 g tablet + 82 mg dipropylene glycol containing 1.64 mg dissolved catalyst (Exp low)): 80 points
tea-stain cleaning on tea cups ([4]; 14 g tablet + 100 mg dipropylene glycol containing 2 mg dissolved catalyst (Exp high)): 85 points

CN1CCN(C)CCN(C)CC1.CN1CCN(C)CCN(C)CC1.O.O.O.O.O=C([O-])c1ccccc1.O=C([O-])c1ccccc1.[Mn+4].[Mn+4].[O-2].[O-2].[O-2] [MnTACN-benzoate, [Mn^IV2(μ-O)3(Me3-TACN)2](benzoate)2*4H2O]
solubility in water [1]: greater than 1000 g/L
solubility and stability in solvent ([2]; dipropylene glycol): dissolved well
stability upon storage in solution ([2]; dipropylene glycol, room temperature for at least 7 months): very high stability
